Drawing on the PolyMetriX glass transition set, this text covers glass transition temperature for 71 compounds.

`*/C(C)=C(/*)c1ccc([Si](C)(C)C)cc1` (repeat unit) yielded a glass transition temperature of -5.00 °C.

For the compound `*C(=O)CCC1(CCC(=O)N2CCN(*)CC2)c2ccccc2-c2ccccc21` (repeat unit), the glass transition temperature turned out to be 145.00 °C.

Regarding `*C(=O)Nc1ccc(-c2ccc(NC(=O)N3CC(C)N(*)CC3C)cc2)cc1` (repeat unit), the glass transition temperature was 250.00 °C.

As to `*C/C=C/COC(=O)C(Cc1ccccc1)NC(=O)CCCCC(=O)NC(Cc1ccccc1)C(=O)O*` (repeat unit), the glass transition temperature came out at 61.00 °C.

The compound `*CC(F)(F)C(F)(F)C(F)(F)COC(=O)CCCCC(=O)O*` (repeat unit) yielded a glass transition temperature of -60.50 °C.

`*CC(O)COC(=O)CCCCC(=O)OCC(O)COc1ccc(C(=O)Oc2ccc(O*)cc2)cc1` (repeat unit) returned a glass transition temperature of 37.00 °C.

In turn, `*CC1CCC(CNC(=O)CCCCC(=O)N*)CC1` (repeat unit) gave a glass transition temperature of 113.00 °C.

For the compound `*CCC1C(=O)N(C)C(=O)C1*` (repeat unit), the glass transition temperature amounted to 141.20 °C.

Regarding `*CCC1C(=O)N(CC)C(=O)C1*` (repeat unit), the glass transition temperature is 109.20 °C.

Turning to `*CCC1C(=O)N(CCCCCCCCCCCCCC)C(=O)C1*` (repeat unit), the glass transition temperature worked out at 62.40 °C.

In turn, `*CCC1CC(*)C2C3CC(C12)C(C)(C(=O)OC)C3` (repeat unit) yielded a glass transition temperature of 146.00 °C.

The compound `*CCC1CC2C(CC(*)C2OC(=O)CCCCCCCCCCOc2ccc(-c3ccc(C#N)cc3)cc2)C1OC(=O)CCCCCCCCCCOc1ccc(-c2ccc(C#N)cc2)cc1` (repeat unit) gave a glass transition temperature of 23.50 °C.

`*CCCC(*)(C)C` (repeat unit): the glass transition temperature is -20.00 °C.

The compound `*CCCC1(C)CCN(C(=O)CCC(=O)N2CCC(*)(C)CC2)CC1` (repeat unit) gave a glass transition temperature of 99.00 °C.

On to `*CCCC1(C)CCN(C(=O)CCCC(=O)N2CCC(*)(C)CC2)CC1` (repeat unit), for which the glass transition temperature was 58.00 °C.

Take `*CCCC1(CCCNC(=O)CCC2(CCC(=O)N*)c3ccccc3-c3ccccc32)c2ccccc2-c2ccccc21` (repeat unit): the glass transition temperature worked out at 165.00 °C.

The compound `*CCCCCC(*)C` (repeat unit) had a glass transition temperature of -66.00 °C.

The compound `*CCCCCC(*)CCCCCC` (repeat unit) came in with a glass transition temperature of -76.00 °C.

Compound `*CCCCCCC(Cl)C(*)Cl` (repeat unit) showed a glass transition temperature of -18.00 °C.

Consider `*CCCCCCC(c1ccc(O)cc1)C(*)c1ccc(O)cc1C` (repeat unit), for which the glass transition temperature is 18.00 °C.

In the case of `*CCCCCCCCCCNC(=O)CCCCC(=O)N*` (repeat unit), the glass transition temperature worked out at 45.00 °C.

Compound `*CCCCCCCCCCOC(=O)CCCCCCC(=O)O*` (repeat unit) came in with a glass transition temperature of -22.00 °C.

As to `*CCCCCCCCCCOC(=O)CCCCCNC(=O)CCCCC(=O)NCCCCCC(=O)O*` (repeat unit), the glass transition temperature is -12.00 °C.

The compound `*CCCCCCCCc1nc2cc(NC(=O)CCCCC(=O)Nc3ccc4oc(*)nc4c3)ccc2o1` (repeat unit) yielded a glass transition temperature of 92.00 °C.

`*CCCCCCCNC(=O)CCCCCC(=O)N*` (repeat unit): the glass transition temperature came to 55.00 °C.

As for `*CCCCCCNC(=O)CCCC(=O)O*` (repeat unit), the glass transition temperature was -18.00 °C.

Compound `*CCCCCCNC(=O)CCCCCCCC1C(CCCCCCCC(=O)N*)C=CC(CCCCCC)C1CCCCCCCC` (repeat unit) displayed a glass transition temperature of -3.00 °C.

`*CCCCCCS(=O)(=O)c1ccc(/N=N/c2ccc(N(C)CCCCCC(=O)O*)cc2)cc1` (repeat unit) showed a glass transition temperature of 60.50 °C.

Regarding `*CCCCOC(=O)CCCC(=O)O*` (repeat unit), the glass transition temperature was -36.50 °C.

Compound `*CCCCOC(=O)CCCCC(=O)OCCCCOC(=O)c1ccc(C(=O)O*)cc1` (repeat unit) yielded a glass transition temperature of -20.00 °C.

On to `*CCCCOC(=O)CCCCCNC(=O)CCCCC(=O)NCCCCCC(=O)O*` (repeat unit), for which the glass transition temperature was -15.00 °C.

The compound `*CCCNC(=O)CCCCC(=O)NCCCO*` (repeat unit) registered a glass transition temperature of 34.00 °C.

`*CCCOC(=O)CCCCC(=O)O*` (repeat unit) registered a glass transition temperature of -55.00 °C.

Compound `*CCCP(CCCNC(=O)CCCCC(=O)N*)c1ccccc1` (repeat unit) showed a glass transition temperature of 49.00 °C.

On to `*CCN(CCOC(=O)CCCCC(=O)O*)c1ccc(/C=N/N(c2ccccc2)c2ccccc2)cc1` (repeat unit), for which the glass transition temperature came to 54.00 °C.

The compound `*CCNC(=O)CCCCC(=O)N*` (repeat unit) yielded a glass transition temperature of 71.00 °C.

In the case of `*CCOC(=O)CCCCCC(=O)O*` (repeat unit), the glass transition temperature was -46.00 °C.

`*CCOC(=O)CCCCCCC(=O)OCCOC(=O)c1ccc(C(=O)O*)cc1` (repeat unit) came in with a glass transition temperature of -1.00 °C.

Regarding `*CCOCCOC(=O)CCCCC(=O)O*` (repeat unit), the glass transition temperature was -51.00 °C.

For the compound `*CCOCCOC(=O)CCCCCCC(=O)O*` (repeat unit), the glass transition temperature was -66.00 °C.

`*CCOCCOCCOC(=O)CCCCCC(=O)O*` (repeat unit): the glass transition temperature is -44.50 °C.

Take `*CNC(=O)CCCCC(=O)NCC1COC(*)CO1` (repeat unit): the glass transition temperature was determined as 93.00 °C.

Regarding `*Cc1cccc(CNC(=O)c2cc(C(=O)N*)cc(C(C)(C)C)c2)c1` (repeat unit), the glass transition temperature is 192.00 °C.

The compound `*Nc1ccc(-c2ccc(NC(=O)c3cc(NC(=O)c4ccncc4)cc(C(*)=O)c3)cc2)cc1` (repeat unit) had a glass transition temperature of 339.00 °C.

Regarding `*Nc1ccc(CCNC(=O)CCCCC(*)=O)cc1` (repeat unit), the glass transition temperature was found to be 115.00 °C.

The compound `*Nc1cccc(NC(=O)CCCCC(*)=O)c1` (repeat unit) registered a glass transition temperature of 114.2 °C.

`*Nc1cccc(NC(=O)CCCCC(=O)Nc2ccc(C(=O)NC(*)=S)cc2)c1` (repeat unit) registered a glass transition temperature of 267.00 °C.

In turn, `*OC(=O)C(Cc1ccccc1)NC(=O)CCCCC(=O)NC(Cc1ccccc1)C(=O)OC1COC2C(*)COC12` (repeat unit) returned a glass transition temperature of 97.50 °C.

The compound `*OC(C)CCCCC(*)=O` (repeat unit) registered a glass transition temperature of -40.00 °C.

Take `*OC1CCC(OC(=O)CCCCC(*)=O)CC1` (repeat unit): the glass transition temperature was determined as 77.80 °C.

Take `*O[Si](C)(C)CCC/N=C/c1cc(Cc2ccc(O)c(/C=N/CCC[Si](*)(C)C)c2)ccc1O` (repeat unit): the glass transition temperature was -51.62 °C.

The compound `*O[Si](C)(C)CCCC(=O)Oc1ccc(/C=N/c2ccc(/N=C/c3ccc(OC(=O)CCC[Si](*)(C)C)cc3)cc2)cc1` (repeat unit) registered a glass transition temperature of 60.00 °C.

Compound `*O[Si](C)(C)CCCC(=O)Oc1ccc(/C=N/c2ccc(Oc3ccc(/N=C/c4ccc(OC(=O)CCC[Si](*)(C)C)cc4)cc3)cc2)cc1` (repeat unit) displayed a glass transition temperature of 52.00 °C.

Take `*O[Si](C)(C)O[Si](C)(C)O[Si](C)(C)O[Si](C)(C)OC(C)CCCCC(*)C` (repeat unit): the glass transition temperature is -98.00 °C.

In turn, `*O[Si](C)(C)O[Si](C)(C)O[Si](C)(C)O[Si](C)(C)O[Si](C)(C)OC(C)CCC(*)C` (repeat unit) yielded a glass transition temperature of -106.00 °C.

As for `*O[Si](C)(C)O[Si](C)(C)O[Si](C)(C)O[Si](C)(C)O[Si](C)(C)OC(C)CCCCC(*)C` (repeat unit), the glass transition temperature was -104.00 °C.

Take `*O[Si](C)(CCC(F)(F)F)CCC(F)(F)C(F)(F)C(F)(F)C(F)(F)C(F)(F)C(F)(F)CC[Si](*)(C)CCC(F)(F)F` (repeat unit): the glass transition temperature is -24.00 °C.

As to `*Oc1c(-c2ccccc2)cc(Cc2cc(-c3ccccc3)c(OC(=O)CCCCC(*)=O)c(-c3ccccc3)c2)cc1-c1ccccc1` (repeat unit), the glass transition temperature came out at 115.00 °C.

For the compound `*Oc1ccc(/C(=C/c2ccc(-c3ccc(/C=C(\c4ccccc4)c4ccc(OC(=O)CCCCC(*)=O)cc4)cc3)cc2)c2ccccc2)cc1` (repeat unit), the glass transition temperature came to 128.00 °C.

`*Oc1ccc(C2(c3ccc(OC(=O)CCCCCCC(*)=O)cc3)c3ccccc3-c3ccccc32)cc1` (repeat unit) displayed a glass transition temperature of 158.00 °C.

As to `*Oc1ccc(C2(c3ccc(Oc4ccc(-c5ccc(NC(=O)c6cc(C(=O)Nc7ccc(-c8ccc(*)c(C(F)(F)F)c8)cc7)cc(C(C)(C)C)c6)cc5)cc4C(F)(F)F)cc3)c3ccccc3-c3ccccc32)cc1` (repeat unit), the glass transition temperature amounted to 278.00 °C.

With `*Oc1ccc(NC(=O)CCCCC(=O)Nc2ccc(OC3COC4C(*)COC34)cc2)cc1` (repeat unit), the glass transition temperature was 150.00 °C.

`*Oc1ccc(NC(=O)CCCCCC(=O)Nc2ccc(*)cc2)cc1` (repeat unit) gave a glass transition temperature of 180.00 °C.

`*Oc1ccc(NC(=O)CCCCCCC(=O)Nc2ccc(*)cc2)cc1` (repeat unit) yielded a glass transition temperature of 180.00 °C.

`*Oc1ccc(OC(=O)CCCCC(*)=O)cc1` (repeat unit) gave a glass transition temperature of 90.00 °C.

In turn, `*Oc1cccc(NC(=O)CCCCCCC(=O)Nc2ccc(*)cc2)c1` (repeat unit) displayed a glass transition temperature of 140.00 °C.

`*c1ccc(NC(=O)CCCCC(=O)Nc2ccc(S(*)(=O)=O)cc2)cc1` (repeat unit) showed a glass transition temperature of 194.00 °C.

`*c1ccc(NC(=O)CCCCCC(=O)Nc2ccc(S(*)(=O)=O)cc2)cc1` (repeat unit) returned a glass transition temperature of 163.00 °C.

`*c1ccc(NC(=O)c2cc(NC(=O)c3ccc(OC(C)=O)cc3)cc(C(=O)Nc3ccc(-c4nnc(*)o4)cc3)c2)cc1` (repeat unit): the glass transition temperature turned out to be 280.00 °C.

In the case of `*c1ccc2c(c1)C(=O)N(c1ccc(Cc3ccc(N4C(=O)c5ccc(C(C)(C)CCCCC(*)(C)C)cc5C4=O)cc3)cc1)C2=O` (repeat unit), the glass transition temperature was determined as 169.90 °C.

The compound `*c1cccc(NC(=O)CCCCC(=O)Nc2cccc(S(*)(=O)=O)c2)c1` (repeat unit) came in with a glass transition temperature of 140.00 °C.
